Measurements: patent US10947244B2, “Forms of a PI3K delta selective inhibitor for use in pharmaceutical formulations” (Rhizen Pharmaceuticals SA, priority 2014, dated 2021)

Test: Particle size (PSD) analysis, Malvern Master Sizer 2000 dry powder
Assay type: physicochemical
Details: PTSA salt of TGR-1202; average of three experiments
Protocol: Particle size (PSD) analysis of the PTSA salts of TGR-1202 prepared in Examples 1 and 2 was performed as described below using a Malvern Master Sizer 2000 with the Scirocco 2000 dry powder system. The instrument parameters were: • Particle RI: 1.50 • Absorption index: 0.1 • Obscuration range: 1-5% • Analysis Model: General purpose • Sensitivity: Normal • Air Pressure: 2.0 Bar • Feed rate: 30% • Sample measurement Time: 6 Second • Background measurement Time: 6 Second • Number of measurement cycle: 1
Procedure: 5 g of TGR-1202 was transferred into a sample measuring cell (i.e., Scirocco 2000) and the airflow was started. Laser intensity was maintained more than 70%. Measurement was started and the vibration feed rate was increased in order to achieve the obscuration within the limits. Once the obscuration came within the limit, measurement was recorded. Analysis was performed in triplicate and the results provided are an average of three experiments.

Row | Structure (SMILES) | d(0.1) [μm] | d(0.5) [μm] | d(0.9) [μm]
1 | CC(C)Oc1ccc(-c2nn([C@@H](C)c3oc4ccc(F)cc4c(=O)c3-c3cccc(F)c3)c3ncnc(N)c23)cc1F [Example 2, (S)-2-(1-(4-amino-3-(3-fluoro-4-isopropoxyphenyl)-1H-pyrazolo[3,4-d]pyrimidin-1-yl)ethyl)-6-fluoro-3-(3-fluorophenyl)-4H-chromen-4-one 4-methyl-benzenesulfonate] | 1.07 | 3.98 | 12.18
2 | CC(C)Oc1ccc(-c2nn([C@@H](C)c3oc4ccc(F)cc4c(=O)c3-c3cccc(F)c3)c3ncnc(N)c23)cc1F [Example 1, (S)-2-(1-(4-amino-3-(3-fluoro-4-isopropoxyphenyl)-1H-pyrazolo[3,4-d]pyrimidin-1-yl)ethyl)-6-fluoro-3-(3-fluorophenyl)-4H-chromen-4-one 4-methyl-benzenesulfonate] | 8.01 | 147.41 | 510.73
